# Like-named read-outs stand apart in the source and are kept apart here.
# Key:
# production d'esters = conditions: six mois après la mise en bouteille; cited from earlier work
# Atf2p = target: T1, Atf2p (Saccharomyces cerevisiae, UniProt P53296); conditions: cited from earlier work
# T1 sequence (P53296 1-535): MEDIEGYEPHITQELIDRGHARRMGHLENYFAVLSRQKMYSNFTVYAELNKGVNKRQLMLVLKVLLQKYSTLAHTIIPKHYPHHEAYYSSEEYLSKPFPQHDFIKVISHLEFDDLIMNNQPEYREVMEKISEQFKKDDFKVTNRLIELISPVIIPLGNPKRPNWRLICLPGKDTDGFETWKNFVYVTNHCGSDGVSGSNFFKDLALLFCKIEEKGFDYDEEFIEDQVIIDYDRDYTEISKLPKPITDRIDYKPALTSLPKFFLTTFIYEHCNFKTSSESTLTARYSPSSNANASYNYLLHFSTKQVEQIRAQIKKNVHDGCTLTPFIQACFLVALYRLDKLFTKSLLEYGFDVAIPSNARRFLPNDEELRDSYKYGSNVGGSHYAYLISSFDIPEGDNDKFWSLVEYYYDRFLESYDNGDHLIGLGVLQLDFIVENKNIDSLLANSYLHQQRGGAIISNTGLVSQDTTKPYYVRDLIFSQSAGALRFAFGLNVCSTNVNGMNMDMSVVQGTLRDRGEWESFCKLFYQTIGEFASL
# [1] = test system: alcool acétyle transférase; conditions: partially purified enzyme, cited from earlier work
# YRC1001/pRC124 = assay: Bioconversion of alcohols added to malt medium by a strain overexpressing ATF2; type: cell-based, Saccharomyces cerevisiae
# Experimental: Transformation dans la souche […], sous contrôle du promoteur proTEF1, le gène ATF2 (pRC124). Les précultures sont réalisées dans du milieu liquide SC20 (Sherman, 1991) dépourvu d'uracile et selon la même procédure que dans l'exemple 3. Les cultures sont ensemencées comme décrit précédemment dans du milieu malt, cette fois non glucosé. Ce dernier est supplémenté en leucine, lysine et histidine. A ce milieu malt, on ajoute juste avant ensemencement des alcools à raison de 100 μg/ml. Après fermentation pendant 98 heures, on analyse -comme décrit précédemment- les alcools et leurs produits dérivés (esters […] correspondant à l'alcool et son ester éthylé). La capacité de bioconversion est ensuite exprimée par le rapport « ester acétylé de l'alcool ajouté »/« somme des alcools et produits dérivés ». Cette valeur donne une indication […] au milieu extérieur par la souche de levure transformée. Les résultats sont […] Tableau 4.
# [2] = alcohol added at 100 µg/ml, malt non glucosé, 98 heures, ratio ester acétylé de l'alcool ajouté / somme des alcools et produits dérivés
compound,measurement,setting,value
CC(=O)OCCc1ccccc1 [acétatede 2-phényléthyle],réduction des esters acétylés,production d'esters,~2 fois
CC(=O)SCCNC(=O)CCNC(=O)[C@H](O)C(C)(C)COP(=O)(O)OP(=O)(O)OC[C@H]1O[C@@H](n2cnc3c(N)ncnc32)[C@H](O)[C@@H]1OP(=O)(O)O [acétyle-CoA],Km,Atf2p,1 µM
same,Km,[1]; co-factor,25 to 40 µM
CCCCO [n-butanol],Bioconversion par YRC1001/pRC124,YRC1001/pRC124,"0,021"
CC(C)CCO [isoamylalcool],Km,[1]; acceptor,25000 µM
same,Bioconversion par YRC1001/pRC124,YRC1001/pRC124; [2],"0,045"
CC(=O)OCCC(C)C [acétate d'isoamyle],réduction des esters acétylés,production d'esters,~2 fois
OCc1ccccc1 [benzylalcool],Bioconversion par YRC1001/pRC124,YRC1001/pRC124; [2],"0,163"
CC(=O)[C@H]1CC[C@H]2[C@@H]3CC=C4C[C@@H](O)CC[C@]4(C)[C@H]3CC[C@]12C [pregnénolone],Km,Atf2p,0.5 µM

# Reference: patent publication EP1308501A1, “Fermented beverages comprising yeast transformed by the ATF2 gene” (Pernod-Ricard, priority 2001, dated 2003)
